Data as given in patent US9179694B2, “Method and composition for enhancing milk production and milk component concentrations” (PURINA ANIMAL NUTRITION LLC, priority 2003, dated 2015).
Marks after values point to notes of the source that are not given here.

Assay: Fat content of produced milk in sorbitol feeding trials
Type: in vivo, Holstein cows
Conditions: for Fat in Produced Milk: Pre-Partum Trial #1 (75/0/0 g/day in wk −3..−1/+1..+4/+5..+8)
Protocol: To determine the weight percent total fat, wet basis, in a sample, the actual weight of fat in the sample is determined in accordance with Method #974.09 (33.7.18) of Official Methods of Analysis, Association of Official Analytical Chemists (AOAC) (16th Ed., 1995). The weight percent total fat, wet basis, is then calculated by dividing the actual weight of fat in the sample by the actual weight of the sample. Each cow of each of the six different trials (Control Trial #1, Control Trial #2, Pre-Partum Trial #1, Pre-Partum Trial #2, Pre/Post Trial #1, and Pre/Post Trial #2) was milked three times daily and the weight of produced milk by each cow was recorded at each milking. The milk from each cow was sampled once per week (⅓ of the sample volume from each of the three milkings occurring on the weekly milk sampling day) and was analyzed for true protein, total fat, lactose, and total solids, as detailed in the property determination and characterization techniques presented above. Additionally, samples of blood were periodically obtained from each cow during the four trials (Control Trial 2, Pre-Partum Trial #2, Pre/Post Trial #1, and Pre/Post Trial #2) encompassed in Example Two and were analyzed for non-esterified fatty acid (NEFA) content as detailed in the property determination and characterization techniques presented above. No NEFA analysis was conducted on the cows employed in Control Trial #1 or Pre-Partum Trial #1 that are the subject of Example One. Example One includes Control Trial #1 and Pre-Partum Trial #1. Both primiparious cows and multiparious cows were included in Control Trial #1 and Pre-Partum Trial #1. Five primiparious cows and fifteen multiparious cows were included in Control Trial #1; likewise, five primiparious cows and fifteen multiparious cows were included in Pre-Partum Trial #1. All cows included in Control Trial #1 and Pre-Partum Trial #1 were Holsteins. Example Two includes Control Trial #2, Pre-Partum Trial #2, Pre/Post Trial #1, and Pre/Post Trial #2. Only multiparious, Holstein cows were included in Control Trial #2, […], Pre/Post Trial #1, and Pre/Post Trial #2. Eighteen multiparious cows were included in both Control Trial #2 and Pre-Partum Trial #2, while sixteen multiparious cows were included in Pre/Post Trial #1 and seventeen multiparious cows were included in Pre/Post Trial #2.

In the case of `OC[C@@H](O)[C@@H](O)[C@H](O)[C@@H](O)CO` [sorbitol], the “Fat in Produced Milk” value (multiparious cows, weeks +1 through +8) is reported as 3.50 wt %, the “Fat in Produced Milk” value (primiparious cows, weeks +1 through +8) is reported as 4.2 wt % and the “increase in fat concentration in the produced milk” value (Pre-Partum Trial #1 (75 g/day wk −3..−1 only) versus Control Trial #1, primiparious cows, weeks +1 through +8) is reported as 11.7%. For the same compound, the “Fat Content of Produced Milk” value (Pre-Partum Trial #2 (75/0/100 g/day in wk −3..−1/+1..+4/+5..+8), multiparious cows, week +1) was 4.91^a weight %, the “Fat Content of Produced Milk” value (Pre-Partum Trial #2 (75/0/100 g/day in wk −3..−1/+1..+4/+5..+8), multiparious cows, week +2) was 4.50 weight % and the “Fat Content of Produced Milk” value (Pre-Partum Trial #2 (75/0/100 g/day in wk −3..−1/+1..+4/+5..+8), multiparious cows, week +3) was 4.09 weight %. For the same compound, the “Fat Content of Produced Milk” value (Pre-Partum Trial #2 (75/0/100 g/day in wk −3..−1/+1..+4/+5..+8), multiparious cows, week +4) was 3.41^a weight %, the “Fat Content of Produced Milk” value (Pre-Partum Trial #2 (75/0/100 g/day in wk −3..−1/+1..+4/+5..+8), multiparious cows, week +5) was 3.35 weight % and the “Fat Content of Produced Milk” value (Pre-Partum Trial #2 (75/0/100 g/day in wk −3..−1/+1..+4/+5..+8), multiparious cows, week +6) was 3.17^a weight %. For the same compound, the “Fat Content of Produced Milk” value (Pre-Partum Trial #2 (75/0/100 g/day in wk −3..−1/+1..+4/+5..+8), multiparious cows, week +7) was 3.29 weight %, the “Fat Content of Produced Milk” value (Pre-Partum Trial #2 (75/0/100 g/day in wk −3..−1/+1..+4/+5..+8), multiparious cows, week +8) was 3.34^ab weight % and the “Fat Content of Produced Milk” value (Pre-Partum Trial #2 (75/0/100 g/day in wk −3..−1/+1..+4/+5..+8), multiparious cows, weeks +1 through +4) was 4.23^a weight %. The “Fat Content of Produced Milk” value (Pre-Partum Trial #2 (75/0/100 g/day in wk −3..−1/+1..+4/+5..+8), multiparious cows, weeks +1 through +8) was 3.75^a weight %, the “Fat Content of Produced Milk” value (Pre-Partum Trial #2 (75/0/100 g/day in wk −3..−1/+1..+4/+5..+8), multiparious cows, weeks +5 through +8) was 3.27^ab weight % and the “Fat Content of Produced Milk” value (Pre/Post Trial #1 (150/125/100 g/day in wk −3..−1/+1..+4/+5..+8), multiparious cows, week +1) was 5.49^ab weight %. For the same compound, the “Fat Content of Produced Milk” value (Pre/Post Trial #1 (150/125/100 g/day in wk −3..−1/+1..+4/+5..+8), multiparious cows, week +1, two-trial comparison with Control Trial #2 (Table 23)) was 5.49 weight %, the “Fat Content of Produced Milk” value (Pre/Post Trial #1 (150/125/100 g/day in wk −3..−1/+1..+4/+5..+8), multiparious cows, week +2) was 4.41 weight % and the “Fat Content of Produced Milk” value (Pre/Post Trial #1 (150/125/100 g/day in wk −3..−1/+1..+4/+5..+8), multiparious cows, week +2, two-trial comparison with Control Trial #2 (Table 23)) was 4.41 weight %. The “Fat Content of Produced Milk” value (Pre/Post Trial #1 (150/125/100 g/day in wk −3..−1/+1..+4/+5..+8), multiparious cows, week +3) was 4.22 weight %, the “Fat Content of Produced Milk” value (Pre/Post Trial #1 (150/125/100 g/day in wk −3..−1/+1..+4/+5..+8), multiparious cows, week +3, two-trial comparison with Control Trial #2 (Table 23)) was 4.22 weight % and the “Fat Content of Produced Milk” value (Pre/Post Trial #1 (150/125/100 g/day in wk −3..−1/+1..+4/+5..+8), multiparious cows, week +4) was 4.01^b weight %. The “Fat Content of Produced Milk” value (Pre/Post Trial #1 (150/125/100 g/day in wk −3..−1/+1..+4/+5..+8), multiparious cows, week +4, two-trial comparison with Control Trial #2 (Table 23)) was 4.01 weight %, the “Fat Content of Produced Milk” value (Pre/Post Trial #1 (150/125/100 g/day in wk −3..−1/+1..+4/+5..+8), multiparious cows, week +5) was 3.71 weight % and the “Fat Content of Produced Milk” value (Pre/Post Trial #1 (150/125/100 g/day in wk −3..−1/+1..+4/+5..+8), multiparious cows, week +5, two-trial comparison with Control Trial #2 (Table 23)) was 3.71 weight %. For the same compound, the “Fat Content of Produced Milk” value (Pre/Post Trial #1 (150/125/100 g/day in wk −3..−1/+1..+4/+5..+8), multiparious cows, week +6) was 3.69^b weight %, the “Fat Content of Produced Milk” value (Pre/Post Trial #1 (150/125/100 g/day in wk −3..−1/+1..+4/+5..+8), multiparious cows, week +6, two-trial comparison with Control Trial #2 (Table 23)) was 3.69 weight % and the “Fat Content of Produced Milk” value (Pre/Post Trial #1 (150/125/100 g/day in wk −3..−1/+1..+4/+5..+8), multiparious cows, week +7) was 3.45 weight %. For the same compound, the “Fat Content of Produced Milk” value (Pre/Post Trial #1 (150/125/100 g/day in wk −3..−1/+1..+4/+5..+8), multiparious cows, week +7, two-trial comparison with Control Trial #2 (Table 23)) was 3.45 weight %, the “Fat Content of Produced Milk” value (Pre/Post Trial #1 (150/125/100 g/day in wk −3..−1/+1..+4/+5..+8), multiparious cows, week +8) was 3.68^b weight % and the “Fat Content of Produced Milk” value (Pre/Post Trial #1 (150/125/100 g/day in wk −3..−1/+1..+4/+5..+8), multiparious cows, week +8, two-trial comparison with Control Trial #2 (Table 23)) was 3.68 weight %. The “Fat Content of Produced Milk” value (Pre/Post Trial #1 (150/125/100 g/day in wk −3..−1/+1..+4/+5..+8), multiparious cows, weeks +1 through +4) was 4.53^ab weight %, the “Fat Content of Produced Milk” value (Pre/Post Trial #1 (150/125/100 g/day in wk −3..−1/+1..+4/+5..+8), multiparious cows, weeks +1 through +4, two-trial comparison with Control Trial #2 (Table 23)) was 4.53 weight % and the “Fat Content of Produced Milk” value (Pre/Post Trial #1 (150/125/100 g/day in wk −3..−1/+1..+4/+5..+8), multiparious cows, weeks +1 through +8) was 4.09^ab weight %. The “Fat Content of Produced Milk” value (Pre/Post Trial #1 (150/125/100 g/day in wk −3..−1/+1..+4/+5..+8), multiparious cows, weeks +1 through +8, two-trial comparison with Control Trial #2 (Table 23)) was 4.09 weight %, the “Fat Content of Produced Milk” value (Pre/Post Trial #1 (150/125/100 g/day in wk −3..−1/+1..+4/+5..+8), multiparious cows, weeks +5 through +8) was 3.63^b weight % and the “Fat Content of Produced Milk” value (Pre/Post Trial #1 (150/125/100 g/day in wk −3..−1/+1..+4/+5..+8), multiparious cows, weeks +5 through +8, two-trial comparison with Control Trial #2 (Table 23)) was 3.63 weight %. The “increase in fat concentration in milk” value (Pre/Post Trial #1 (150/125/100 g/day) versus Control Trial #2, multiparious cows, weeks +1 through +8 (Table 23)) was 7.3%, the “increase in fat concentration in milk” value (Pre/Post Trial #1 (150/125/100 g/day) versus Control Trial #2, multiparious cows, weeks +5 through +8 (Table 23)) was 13.8% and the “greater fat concentration in milk” value (Pre/Post Trial #1 (150/125/100 g/day) versus Pre/Post Trial #2 (75/75/100 g/day), multiparious cows, week +8) was 17.2%. The “Fat Content of Produced Milk” value (Pre/Post Trial #2 (75/75/100 g/day in wk −3..−1/+1..+4/+5..+8), multiparious cows, week +1) was 6.23^b weight %, the “Fat Content of Produced Milk” value (Pre/Post Trial #2 (75/75/100 g/day in wk −3..−1/+1..+4/+5..+8), multiparious cows, week +2) was 4.73 weight % and the “Fat Content of Produced Milk” value (Pre/Post Trial #2 (75/75/100 g/day in wk −3..−1/+1..+4/+5..+8), multiparious cows, week +3) was 4.21 weight %. The “Fat Content of Produced Milk” value (Pre/Post Trial #2 (75/75/100 g/day in wk −3..−1/+1..+4/+5..+8), multiparious cows, week +4) was 3.87^b weight %, the “Fat Content of Produced Milk” value (Pre/Post Trial #2 (75/75/100 g/day in wk −3..−1/+1..+4/+5..+8), multiparious cows, week +5) was 3.89 weight % and the “Fat Content of Produced Milk” value (Pre/Post Trial #2 (75/75/100 g/day in wk −3..−1/+1..+4/+5..+8), multiparious cows, week +6) was 3.48^ab weight %. For the same compound, the “Fat Content of Produced Milk” value (Pre/Post Trial #2 (75/75/100 g/day in wk −3..−1/+1..+4/+5..+8), multiparious cows, week +7) was 3.47 weight %, the “Fat Content of Produced Milk” value (Pre/Post Trial #2 (75/75/100 g/day in wk −3..−1/+1..+4/+5..+8), multiparious cows, week +8) was 3.14^a weight % and the “Fat Content of Produced Milk” value (Pre/Post Trial #2 (75/75/100 g/day in wk −3..−1/+1..+4/+5..+8), multiparious cows, weeks +1 through +4) was 4.79^b weight %. For the same compound, the “Fat Content of Produced Milk” value (Pre/Post Trial #2 (75/75/100 g/day in wk −3..−1/+1..+4/+5..+8), multiparious cows, weeks +1 through +8) was 4.13^b weight %, the “Fat Content of Produced Milk” value (Pre/Post Trial #2 (75/75/100 g/day in wk −3..−1/+1..+4/+5..+8), multiparious cows, weeks +5 through +8) was 3.43^ab weight % and the “greater fat concentration in milk” value (Pre/Post Trial #2 (75/75/100 g/day) versus Pre-Partum Trial #2 (75/0/100 g/day), multiparious cows, weeks +1 through +4) was 13.24%. The “greater fat concentration in milk” value (Pre/Post Trial #2 (75/75/100 g/day) versus Pre-Partum Trial #2 (75/0/100 g/day), multiparious cows, weeks +1 through +8) was 10.1%, the “increase in fat concentration in milk” value (average of means of Pre-Partum Trial #2, Pre/Post Trial #1 and Pre/Post Trial #2 versus Control Trial #2, multiparious cows, weeks +1 through +8) was 4.7% and the “increase in fat concentration in milk” value (average of means of Pre-Partum Trial #2, Pre/Post Trial #1 and Pre/Post Trial #2 versus Control Trial #2, multiparious cows, weeks +5 through +8) was 7.9%.
